What all share (assay type): cell-based, Homo sapiens
Assay [1] addresses Gamma-secretase. Briefly: Inhibition of gamma-secretase (unknown origin) expressed in HEK293 cell membrane co-expressing […] mutant assessed as reduction of amyloid beta-40 production.
Assay [2] concerns the target Gamma-secretase. The assay can be described thus: Inhibition of gamma-secretase (unknown origin) expressed in HEK293 cells co-expressing […] mutant assessed as reduction of amyloid beta-42 production.
Assay [3] has as its target Gamma-secretase. The assay can be described thus: Inhibition of gamma-secretase (unknown origin) expressed in HEK293 cells co-expressing […] mutant assessed as reduction of amyloid beta-40 production.

In general, IC50 refers to the concentration that inhibits the measured activity by half.

With `O=S(=O)(NC[C@@H]1CC[C@@]2(S(=O)(=O)c3ccc(C(F)(F)F)cc3)c3c(F)ccc(F)c3OC[C@H]2C1)C1CC1`, the IC50 on Gamma-secretase [1] was determined as 92 nM; on Gamma-secretase [2], 19 nM; at Gamma-secretase [3], 6.8 nM.

`CS(=O)(=O)CC[C@@H]1OCC[C@@]2(S(=O)(=O)c3ccc(Cl)cc3)c3c(F)ccc(F)c3OC[C@@H]12`: the results for the IC50 at Gamma-secretase [1], on Gamma-secretase [2] and on Gamma-secretase [3] were 1.3 nM, 1 nM and 4 nM, respectively.

Take `CS(=O)(=O)CC[C@@H]1CCC[C@@]2(S(=O)(=O)c3ccc(C(F)(F)F)cc3)c3c(F)ccc(F)c3OC[C@@H]12`: the IC50 was determined as 43 nM at Gamma-secretase [1], 21 nM at Gamma-secretase [2] and 63 nM on Gamma-secretase [3].

`CC[C@@H]1C[C@@H]2[C@@H](CC[C@@]3(S(=O)(=O)c4ccc(C#N)cc4)C4=C(OC[C@@H]23)C(F)(F)C=CC4=O)NS1(=O)=O`: the concentration for half-maximal inhibition (IC50) was 3.5 nM on Gamma-secretase [1], 31 nM at Gamma-secretase [2] and 110 nM at Gamma-secretase [3].

As for `CC[C@@H]1C[C@@H]2[C@@H](CC[C@@]3(S(=O)(=O)c4ccc(C(F)(F)F)cc4)c4c(F)ccc(F)c4OC[C@@H]23)NS1(=O)=O`, the figures for the half-inhibitory concentration (IC50) at Gamma-secretase [1], on Gamma-secretase [2] and at Gamma-secretase [3] were 1.9 nM, 2 nM and 5 nM, respectively.

Regarding `CS(=O)(=O)CC[C@@H]1OCC[C@@]2(S(=O)(=O)c3ccc(C(F)(F)F)cc3)C3=C(OC[C@@H]12)C(F)(F)C=CC3=O`, the IC50 on Gamma-secretase [1] was determined as 1.8 nM; at Gamma-secretase [2], 27 nM; at Gamma-secretase [3] it was 56 nM.

`O=C1C=CC(F)(F)C2=C1[C@]1(S(=O)(=O)c3ccc(C(F)(F)F)cc3)CC[C@@H](NS(=O)(=O)C3CC3)C[C@@H]1CO2`: the IC50 at Gamma-secretase [1] stood at 6.8 nM; on Gamma-secretase [2] it was 110 nM; at Gamma-secretase [3] it was 280 nM.

With `O=C1C=CC(F)(F)C2=C1[C@]1(S(=O)(=O)c3ccc(C(F)(F)F)cc3)CCC[C@@H](CNS(=O)(=O)C(F)(F)F)[C@@H]1CO2`, the results for the half-maximal inhibitory concentration (IC50) on Gamma-secretase [1], at Gamma-secretase [2] and at Gamma-secretase [3] were 78 nM, 200 nM and 330 nM, respectively.

With `CS(=O)(=O)CC[C@@H]1OCC[C@@]2(S(=O)(=O)c3ccc(C#N)cc3)C3=C(OC[C@@H]12)C(F)(F)C=CC3=O`, the figures for the IC50 at Gamma-secretase [1], on Gamma-secretase [2] and at Gamma-secretase [3] were 21 nM, 410 nM and 1600 nM, respectively.

Turning to `O=S(=O)(NC[C@@H]1CCC[C@@]2(S(=O)(=O)c3ccc(C(F)(F)F)cc3)c3c(F)ccc(F)c3OC[C@@H]12)C(F)(F)F`, the IC50 came to 54 nM on Gamma-secretase [1], 32 nM at Gamma-secretase [2] and 73 nM at Gamma-secretase [3].

Regarding `CS(=O)(=O)CC[C@@H]1OCC[C@@]2(S(=O)(=O)c3ccc(Cl)cc3)C3=C(OC[C@@H]12)C(F)(F)C=CC3=O`, the IC50 was found to be 1.2 nM at Gamma-secretase [1], 11 nM on Gamma-secretase [2] and 26 nM on Gamma-secretase [3].

`CS(=O)(=O)CC[C@@H]1CCC[C@@]2(S(=O)(=O)c3ccc(C(F)(F)F)cc3)C3=C(OC[C@@H]12)C(F)(F)C=CC3=O`: the IC50 on Gamma-secretase [1] turned out to be 1.9 nM; at Gamma-secretase [2] it was 49 nM; at Gamma-secretase [3], 130 nM.

Regarding `CS(=O)(=O)CC[C@@H]1OCC[C@@]2(S(=O)(=O)c3ccc(C#N)cc3)c3c(F)ccc(F)c3OC[C@@H]12`, the IC50 on Gamma-secretase [1] came to 66 nM; on Gamma-secretase [2], 9 nM; at Gamma-secretase [3] it was 25 nM.

In the case of `CC[C@@H]1C[C@@H]2[C@@H](CC[C@@]3(S(=O)(=O)c4ccc(C(F)(F)F)cc4)C4=C(OC[C@@H]23)C(F)(F)C=CC4=O)NS1(=O)=O`, the IC50 on Gamma-secretase [1] came out at 3.9 nM; on Gamma-secretase [2] it was 25 nM; on Gamma-secretase [3] it was 46 nM.

In the case of `CC[C@@H]1C[C@@H]2[C@@H](CC[C@@]3(S(=O)(=O)c4ccc(C#N)cc4)c4c(F)ccc(F)c4OC[C@@H]23)NS1(=O)=O`, the IC50 on Gamma-secretase [1] came to 4.7 nM; at Gamma-secretase [2], 2 nM; on Gamma-secretase [3] it was 4 nM.

For the molecule `CS(=O)(=O)CC[C@@H]1OCC[C@@]2(S(=O)(=O)c3ccc(C(F)(F)F)cc3)c3c(F)ccc(F)c3OC[C@@H]12`, the IC50 at Gamma-secretase [1] came out at 15 nM; at Gamma-secretase [2], 4 nM; on Gamma-secretase [3], 11 nM.
